Results from PubChem BioAssay AID540271 (Broad Institute, 2011).

Tested on: S. cerevisiae expressing PfHSP40, growth rescue, plate reader
Experiment: Yeast growth rescue from Plasmodium falciparum HSP40 toxicity, dose response confirmatory, plate reader (AID 540271);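 note: yeast growth read after three days of incubation at 30 °C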

Structure (SMILES) | AC50 [µM]
CCCCC(=O)NC(c1ccco1)c1cc(Cl)c2cccnc2c1O (stereo not given) | 2
O=Nc1c(O)c2ccccc2c2ccccc12 | 0.902
Clc1ccccc1CN(Cc1ccco1)Cc1nnnn1C1CCCC1 | 5.17
CC1=CC(=O)C=C(C)C1=NOS(=O)(=O)c1ccccc1 | 4.15
C[C@@]12C(=O)Nc3ccc(F)cc3C(=O)N1[C@H]1c3ccccc3OC[C@@H]1[C@@H]2c1ccccc1 | 8.46
CCc1oc2ccccc2c1C(=O)c1cc(Br)c(O)c(Br)c1 | 3.28
O=[N+]([O-])c1ccc(S(=O)Cc2ccccc2)c([N+](=O)[O-])c1 (stereo not given) | 1.75
C[C@@]12CCC3[C@@](CCC4[C@@]3(C)CCC[C@@]4(C)C(=O)NCc3ccccc3)(CC1=O)C2 (stereo not given in full) | 1.43
O=Cc1cc(N=Nc2ccccc2Cl)ccc1O | 0.768
COc1ccc(/C=N/Nc2cc(C)nc(-n3nc(C)cc3C)n2)cc1 | 5.99
O=S(=O)(c1ccc(Cl)cc1)N1CCC2(CC1)OCCN2S(=O)(=O)c1cccs1 | 4.77
COc1ccc(N(C)S(=O)(=O)c2ccc(Cl)c(C(=O)NNC(=O)c3ccccc3O)c2)cc1 | 2.52
Cc1ccsc1/C=C/c1ccc2cccc(O)c2n1 | 3.48
CCOC(=O)c1ccc(N2C(=O)CC(N(C)CCc3ccc(OC)c(OC)c3)C2=O)cc1 (stereo not given) | 5.96
COc1ccc(-n2nc(C#N)c(Cl)cc2=O)cc1 | 7.48
Cn1ccc(=Nc2ccc(NC(=O)c3ccc(N=c4ccn(C)c5ccc([N+](=O)[O-])cc45)cc3)cc2)cc1 | 6.48
CC1(C(=O)OCC(=O)Nc2ccc3ccccc3c2)CC1(Cl)Cl (stereo not given) | 9.6
COc1cccc(CNC(=O)CSc2ccc(-c3ccccn3)nn2)c1 | 5.07

Structure (SMILES) | AC50 [µM]
O=C(CSc1ccc(-c2ccccn2)nn1)NC1CCCCC1 | 4.21
CC(=O)NC(c1ccc(C)cc1)c1cc([N+](=O)[O-])c2cccnc2c1O (stereo not given) | 8.83
Nc1c(Cl)ncnc1N/N=C/c1ccc2ccccc2n1 | 5.36
S=C(NCc1ccco1)Nc1ccc(Oc2ccc(Cl)cc2)cc1 | 7.02
COc1cccc2c1C(=O)c1c(O)c3c(c(O)c1C2=O)C[C@@](O)(C(=O)CO)C[C@@H]3O[C@H]1C[C@H](N)[C@H](O)[C@H](C)O1 | 6.48
COc1cccc2c1C(=O)c1c(O)c3c(c(O)c1C2=O)CC(O)(C(C)=O)CC3OC1CC(N(C)C)C(O)C(C)O1 (stereo not given) | 1.41
O=c1c(O)cccc2cc(O)c(O)c(O)c12 | 3.63
Cn1nc(C(F)(F)F)c(C#N)c1N1CCN(c2ccc(F)cc2)CC1 | 7.37
O=C1c2ccccc2NC(c2ccc(-c3cccc([N+](=O)[O-])c3)o2)N1O (stereo not given) | 4.69
Cc1ccc(NC(=O)CN(C)C(=O)c2cccnc2Nc2cccc(C(F)(F)F)c2)cc1 | 4.74
NNC(=O)c1ccc2nc(-c3ccc(Br)cc3)cn2c1 | 6.47
N#C/C(=C\Nc1ccccc1O)c1nc2ccccc2o1 | 9.96
Cc1nc2ccc(C(=O)NCc3ccc4c(c3)OCO4)cc2s1 | 4.51
CCc1ccc(S(=O)(=O)N(C(=O)c2ccncc2)c2ccc(OC(=O)c3ccncc3)cc2)cc1 | 3.01
CCC(=O)NC(c1ccco1)c1cc(Cl)c2cccnc2c1O (stereo not given) | 2.99
O=C(Nc1cccc(-c2nc3ccccc3s2)c1)c1cccs1 | 5.98
Clc1cccc(N/N=C(\Cc2nc3ccccc3[nH]2)c2ccccc2)c1 | 9.04
